Consider four compounds from ChEMBL document CHEMBL5126588, “Discovery of non-substrate, environmentally sensitive turn-on fluorescent probes for imaging HDAC8 in tumor cells and tissue slices” (Bioorg Med Chem, 2022).

Usually Kd stands for the concentration at which binding is half-saturated. A low value points to a tighter complex. Broadly, the IC50 is the concentration needed to halve the response being measured. A high value points to weaker potency.

The source made the active and inactive calls. The rule behind the calls is not given here.

The target in data set [1] is T1, Histone deacetylase 8 (Homo sapiens, UniProt Q9BY41).
T1 sequence (Q9BY41 whole entry): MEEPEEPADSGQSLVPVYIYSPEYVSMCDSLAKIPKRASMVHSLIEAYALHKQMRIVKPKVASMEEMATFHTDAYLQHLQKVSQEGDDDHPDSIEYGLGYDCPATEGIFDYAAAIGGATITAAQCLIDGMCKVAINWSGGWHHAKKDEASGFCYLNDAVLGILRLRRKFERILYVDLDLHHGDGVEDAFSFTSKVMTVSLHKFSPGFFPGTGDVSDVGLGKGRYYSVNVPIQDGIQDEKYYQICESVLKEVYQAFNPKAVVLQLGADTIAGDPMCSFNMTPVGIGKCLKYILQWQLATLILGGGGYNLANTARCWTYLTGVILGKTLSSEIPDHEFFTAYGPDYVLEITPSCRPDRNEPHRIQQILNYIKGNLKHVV
The experiment in a line: Binding affinity to HDAC8 (unknown origin) by biolayer interferometry assay. Background: Biolayer interferometry detects binding as a change in optical thickness at a sensor tip.

Data set [2] relates to MDA-MB-231. The experiment in a line: Antiproliferative activity against human MDA-MB-231 cells by MTT assay. Type of data set: functional, cell-based. (In general: Tetrazolium dyes change colour on reduction, which living cells bring about.)
Data set [3] addresses Histone deacetylase 1 (Homo sapiens, UniProt Q13547). In words: Binding affinity to HDAC1 (unknown origin) by biolayer interferometry assay.
The target in data set [4] is T2, Protein deacetylase HDAC6 (Homo sapiens, UniProt Q9UBN7).
T2 sequence (Q9UBN7 whole entry): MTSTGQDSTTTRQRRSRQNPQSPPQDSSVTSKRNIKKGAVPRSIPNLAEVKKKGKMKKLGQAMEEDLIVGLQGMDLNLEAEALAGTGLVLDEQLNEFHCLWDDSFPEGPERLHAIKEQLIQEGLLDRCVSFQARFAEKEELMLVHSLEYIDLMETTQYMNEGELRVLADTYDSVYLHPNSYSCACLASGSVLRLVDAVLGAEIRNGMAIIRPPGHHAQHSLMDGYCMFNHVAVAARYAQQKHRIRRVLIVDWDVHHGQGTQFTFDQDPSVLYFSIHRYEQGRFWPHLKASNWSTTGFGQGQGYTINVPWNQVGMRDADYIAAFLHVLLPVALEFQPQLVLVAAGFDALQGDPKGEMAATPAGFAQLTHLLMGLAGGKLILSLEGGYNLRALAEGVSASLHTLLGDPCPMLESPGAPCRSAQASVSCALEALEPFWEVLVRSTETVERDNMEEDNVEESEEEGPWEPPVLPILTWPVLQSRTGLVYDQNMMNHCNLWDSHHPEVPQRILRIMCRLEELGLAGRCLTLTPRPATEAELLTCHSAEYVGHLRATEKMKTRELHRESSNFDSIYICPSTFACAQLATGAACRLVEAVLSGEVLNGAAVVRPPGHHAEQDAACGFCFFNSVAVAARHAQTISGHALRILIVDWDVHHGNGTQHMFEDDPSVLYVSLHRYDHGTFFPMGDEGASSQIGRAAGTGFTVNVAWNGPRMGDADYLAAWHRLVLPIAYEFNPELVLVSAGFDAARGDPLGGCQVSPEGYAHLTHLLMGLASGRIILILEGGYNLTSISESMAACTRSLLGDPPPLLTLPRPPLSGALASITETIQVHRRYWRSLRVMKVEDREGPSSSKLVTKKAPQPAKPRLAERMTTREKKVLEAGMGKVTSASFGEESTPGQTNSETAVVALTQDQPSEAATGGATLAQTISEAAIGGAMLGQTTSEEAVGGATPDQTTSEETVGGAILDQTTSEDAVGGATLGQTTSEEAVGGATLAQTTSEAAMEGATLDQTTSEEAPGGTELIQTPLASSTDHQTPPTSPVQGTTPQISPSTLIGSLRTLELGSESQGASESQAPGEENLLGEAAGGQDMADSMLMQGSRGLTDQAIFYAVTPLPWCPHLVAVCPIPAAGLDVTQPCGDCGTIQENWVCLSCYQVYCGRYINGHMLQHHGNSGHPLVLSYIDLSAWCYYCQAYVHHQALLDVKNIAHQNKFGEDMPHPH
In words: Binding affinity to HDAC6 (unknown origin) by biolayer interferometry assay.

For data set [5], the system named is SH-SY5Y. In words: Antiproliferative activity against human SH-SY5Y cells by MTT assay. It counts as functional, cell-based.
The target of data set [6] is T3, Histone deacetylase 8 (Homo sapiens) (UniProt Q9BY41).
T3 sequence (whole entry): T1 sequence (Q9BY41 whole entry)
The experiment in a line: Binding affinity to HDAC8 in human SH-SY5Y cells assessed as increase in fluorescence intensity at 5 to 10 uM incubated for 30 mins by flow cytometry analysis. Type of data set: cell-based. Particulars: dose 5-10 µM. A general note: A flow cytometer gives signals particle by particle.

For data set [7], the system named is MDA-MB-231. In words: Antiproliferative activity against human MDA-MB-231 cells within 20 uM by MTT assay. It counts as toxicity, cell-based. To be noted: mda-mb-231, 20 µM.
Data set [8] has as its system SH-SY5Y. In words: Antiproliferative activity against human SH-SY5Y cells within 20 uM by MTT assay. It counts as toxicity, cell-based.
For data set [9], the target named is T3, Histone deacetylase 8 (Homo sapiens). The experiment in a line: Binding affinity to HDAC8 in human SH-SY5Y cells xenografted with BALB/c mouse assessed as increase in fluorescence intensity in tumor tissue at 20 uM after 30 mins by fluorescence imaging analysis.
Data set [10] shares this target. The experiment in a line: Binding affinity to HDAC8 in human SH-SY5Y cells assessed as increase in fluorescence intensity at 10 uM after 30 mins by confocal fluorescence microscopic analysis. Type of data set: cell-based.

Sequence of Histone deacetylase 1 (Q13547 whole entry): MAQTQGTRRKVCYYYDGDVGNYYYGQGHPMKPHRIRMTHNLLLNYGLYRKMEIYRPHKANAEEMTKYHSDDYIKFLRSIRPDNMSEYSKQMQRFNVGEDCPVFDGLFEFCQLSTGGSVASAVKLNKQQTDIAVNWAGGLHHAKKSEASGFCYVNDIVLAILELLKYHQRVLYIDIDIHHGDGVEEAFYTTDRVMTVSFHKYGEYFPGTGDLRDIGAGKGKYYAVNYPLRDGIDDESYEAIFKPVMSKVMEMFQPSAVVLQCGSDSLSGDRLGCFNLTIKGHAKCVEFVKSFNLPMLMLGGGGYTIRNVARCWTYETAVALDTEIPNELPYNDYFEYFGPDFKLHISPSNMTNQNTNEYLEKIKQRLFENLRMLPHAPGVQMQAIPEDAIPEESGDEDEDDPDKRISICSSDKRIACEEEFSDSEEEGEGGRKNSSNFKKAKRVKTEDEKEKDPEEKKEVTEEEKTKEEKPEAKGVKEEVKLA

As to `COc1ccc(Cn2ccc3ccc(C(=O)NO)cc32)cc1C(=O)NCCCNc1ccc(S(=O)(=O)N(C)C)c2nonc12`, the Kd was determined as 3.57 µM in [1], 20.6 µM in [3] and 20.1 µM in data set [4]. For the same compound, the concentration for half-maximal inhibition (IC50) stood at 18 µM in [2] and 8.56 µM in data set [5].

`COc1ccc(Cn2ccc3ccc(C(=O)NO)cc32)cc1C(=O)NCCCCNc1ccc(S(=O)(=O)N(C)C)c2nonc12`: the outcome in data set [6], in data set [9] and in [10] was Active. The Activity entry in [7] and in data set [8] was “Non-Toxic” in each case. The results for the Kd in [1], in [3] and in data set [4] were 8.89 µM, 79.4 µM and 137 µM, respectively. The IC50 stood at 33 µM in data set [2] and 8.48 µM in data set [5].

As to `COc1ccc(Cn2ccc3ccc(C(=O)NO)cc32)cc1C(=O)NCCNc1ccc(S(=O)(=O)N(C)C)c2nonc12`, the Kd in data set [1] turned out to be 5.37 µM; in data set [3] it was 16.2 µM; in [4], 29.4 µM. In addition, the half-inhibitory concentration (IC50) in data set [2] worked out at 16.1 µM; in [5], 9.93 µM.

As for `COc1ccc(Cn2ccc3ccc(C(=O)NO)cc32)cc1`, the IC50 in data set [2] came out at 16.1 µM; in data set [5] it was 2.38 µM.
